Values of other authors as cited in patent publication US10993934B2, “Topical compositions of dutasteride” (SHILPA MEDICARE LIMITED, priority 2017, dated 2021).

How the values were obtained:
[1] = orally administered

Absolute bioavailability [1]: about 60%
Absolute bioavailability (range) ([1]; range in brackets): 40%-94%
Solubility in ethanol (ethanol): soluble
Solubility in methanol (methanol): soluble
Solubility in polyethylene glycol 400 (polyethylene glycol 400): soluble
Solubility in water (water): insoluble
SMILES: C[C@]12C=CC(=O)N[C@@H]1CC[C@@H]1[C@@H]2CC[C@]2(C)[C@@H](C(=O)Nc3cc(C(F)(F)F)ccc3C(F)(F)F)CC[C@@H]12 [Dutasteride, (5α,17β)-N-{2,5-bis(trifluoromethyl)phenyl}-3-oxo-4-azaandrost-1-ene-17-carboxamide]
